Experimental findings from patent US10865176B2, “Small molecule modulators of microRNA-34a” (The Chinese University of Hong Kong, priority 2012, dated 2020) are described below.

Experiment [1] deals with human umbilical vein endothelial cells (HUVECs). The experiment is described as follows: In vitro tube formation assay. The experiment is classed as cell-based. To be noted: ECM gel, 4 h. The method, then:
The in vitro tube formation assay with human umbilical vein endothelial cells (HUVECs) was performed using the in vitro Angiogenesis Assay Kit (Cell Biolabs). HUVECs were plated at the density of 2×10^4/well and treated with Dimethyl sulfoxide (DMSO) or Rubone ([…] or 2 μM) respectively for 24 h. HUVECs were then seeded onto the ECM gel surface and cultured for 4 h. Then, 100 μl 1× Staining Solution was applied to each well and incubated 30 min at 37° C. and images were captured with an Olympus SC35 camera (Olympus America, Inc., Melville, N.Y.). Tube formation was quantified by counting the number of branching points on each image.

The subject of another experiment is HepG2 cells. The experiment is described as follows: MTT cell viability assay, HepG2. Type of experiment: cell-based, human. The procedure:
Cell viability was measured by 3-(4,5-Dimethylthiazol-2-yl)-2,5-diphenyltetrazolium bromide (MTT) assay. 1×10^3 Cells were seeded in triplicate on a 96 well plate and were allowed to grow for indicated time points. At each time point a set of cells were incubated with 0.5 mg/ml MTT diluted in 1×PBS. After 2 to 4 h incubation, the MTT solution was removed. The insoluble MTT was dissolved in DMSO. Absorbance at 570 nm was measured by an ELISA plate reader.

SMILES strings stand for the structures.

Take `COc1cc(O)c(C(=O)/C=C/c2cc(OC)c(OC)cc2OC)c(OC)c1` [Rubone, 2′-Hydroxy-2,4,4′,5,6′-pentamethoxychalcone]: the tube score in experiment [1] (1 μM, control group 42.33, p=0.0036) is reported as 3.667. Further, the tube formation result in experiment [1] (2 μM) is given as “no tubes formed at all”. The “growth inhibitory effect of Rubone after p53 knockdown (MTT)” value in the experiment on HepG2 cells (HepG2, 2 μM siRNAs targeting p53, 10 μM Rubone) was “significantly reversed by knocking down p53”. The “cell growth (MTT)” value in the experiment with HepG2 cells (HepG2, 10 μM) is reported as “significantly inhibited the growth”.
